Literature values, collected in patent US20080292591A1, “Tumor mouse models using lentiviral vectors” (The Salk Institute for Biological Studies, priority 2007, published 2008).

Legend:
xenografts of tumors = conditions: animal models bearing xenografts of tumors

## Cc1cc(Nc2cc(N3CCN(C)CC3)nc(Sc3ccc(NC(=O)C4CC4)cc3)n2)n[nH]1 [VX-680]
A variety of cell lines
  antiproliferative activity in vitro: broad and potent antiproliferative activity
Xenografts of tumors
  antitumor activity in animal models: robust antitumor activity
